Experimental findings from PMC12677052, “Identification and rescue of congenital hyperinsulinism-associated ABCC8 mutations that impair KATP channel trafficking” (The Journal of Biological Chemistry, 2025) are described below.

What all share (format): cell-based
The target of experiment [1] is T1, sulfonylurea receptor 1 (SUR1) (Homo sapiens, UniProt Q09428).
T1 construct: gene ABCC8; human FLAG-tagged SUR1 (f-SUR1) coexpressed with human Kir6.2 in COSm6 cells; with Kir6.2 (KCNJ11)
Kind of experiment: Rb+ efflux inhibition in cells after […] overnight treatment and washout.

For experiment [2], the target named is T1, sulfonylurea receptor 1 (SUR1). Put plainly: inside-out patch-clamp dose-response. In general terms: The patch-clamp technique gives a direct electrical read-out from membranes.
Experiment [3] has as its target T2, sulfonylurea receptor 1 (SUR1) (Homo sapiens, UniProt Q09428, Y124F).
T2 construct: gene ABCC8; human FLAG-tagged SUR1 (f-SUR1) coexpressed with human Kir6.2 in COSm6 cells; with Kir6.2 (KCNJ11)
Put plainly: inside-out patch-clamp dose-response.

The target of experiment [4] is T3, sulfonylurea receptor 1 (SUR1) (Homo sapiens, UniProt Q09428, W143R).
T3 construct: gene ABCC8; human FLAG-tagged SUR1 (f-SUR1) coexpressed with human Kir6.2 in COSm6 cells; with Kir6.2 (KCNJ11)
Put plainly: pharmacochaperone rescue in cells at […] (western blot, Rb+ efflux).

By EC50 is commonly meant the midpoint of the concentration-response curve. A high value points to lower potency in that assay.

The structures appear in SMILES notation.

T1 sequence (Q09428 whole entry): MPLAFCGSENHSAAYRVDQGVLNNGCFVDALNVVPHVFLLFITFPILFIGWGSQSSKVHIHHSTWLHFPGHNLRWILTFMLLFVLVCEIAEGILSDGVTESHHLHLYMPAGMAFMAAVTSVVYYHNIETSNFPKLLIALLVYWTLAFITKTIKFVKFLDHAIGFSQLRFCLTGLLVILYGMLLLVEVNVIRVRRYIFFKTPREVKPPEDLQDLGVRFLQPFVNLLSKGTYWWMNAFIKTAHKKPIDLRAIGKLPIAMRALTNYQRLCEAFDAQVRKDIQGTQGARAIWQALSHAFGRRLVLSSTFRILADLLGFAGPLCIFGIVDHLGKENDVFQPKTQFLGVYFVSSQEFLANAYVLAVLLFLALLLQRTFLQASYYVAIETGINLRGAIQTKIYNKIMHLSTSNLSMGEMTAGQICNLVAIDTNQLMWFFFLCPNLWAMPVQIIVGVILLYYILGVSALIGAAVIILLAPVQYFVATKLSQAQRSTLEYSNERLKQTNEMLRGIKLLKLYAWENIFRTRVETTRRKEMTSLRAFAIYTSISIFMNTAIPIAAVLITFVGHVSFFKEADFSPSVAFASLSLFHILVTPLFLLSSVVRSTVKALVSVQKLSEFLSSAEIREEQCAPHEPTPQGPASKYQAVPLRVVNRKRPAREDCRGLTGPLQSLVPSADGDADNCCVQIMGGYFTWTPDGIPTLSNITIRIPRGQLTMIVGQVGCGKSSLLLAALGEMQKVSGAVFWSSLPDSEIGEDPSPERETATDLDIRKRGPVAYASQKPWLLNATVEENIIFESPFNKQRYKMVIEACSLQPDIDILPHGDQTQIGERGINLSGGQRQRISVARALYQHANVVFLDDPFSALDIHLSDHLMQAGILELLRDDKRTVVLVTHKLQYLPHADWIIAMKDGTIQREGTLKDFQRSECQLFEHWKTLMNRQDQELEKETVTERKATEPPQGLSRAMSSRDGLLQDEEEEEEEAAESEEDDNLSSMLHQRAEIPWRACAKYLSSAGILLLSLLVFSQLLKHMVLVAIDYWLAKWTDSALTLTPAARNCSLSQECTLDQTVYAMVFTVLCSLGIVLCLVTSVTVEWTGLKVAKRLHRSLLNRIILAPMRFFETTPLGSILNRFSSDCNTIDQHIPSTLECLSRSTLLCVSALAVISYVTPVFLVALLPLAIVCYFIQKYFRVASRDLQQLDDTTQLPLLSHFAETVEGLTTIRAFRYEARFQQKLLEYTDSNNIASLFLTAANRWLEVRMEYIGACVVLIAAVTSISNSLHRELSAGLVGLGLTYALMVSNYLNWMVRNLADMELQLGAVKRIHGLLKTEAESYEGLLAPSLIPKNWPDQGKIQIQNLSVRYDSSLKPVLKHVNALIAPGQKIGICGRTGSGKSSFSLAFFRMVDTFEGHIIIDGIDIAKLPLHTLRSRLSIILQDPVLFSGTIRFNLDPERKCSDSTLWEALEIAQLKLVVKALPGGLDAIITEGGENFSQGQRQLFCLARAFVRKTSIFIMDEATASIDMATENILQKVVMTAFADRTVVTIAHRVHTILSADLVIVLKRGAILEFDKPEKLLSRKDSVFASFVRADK
T1 sequence (Q14654 whole entry partner): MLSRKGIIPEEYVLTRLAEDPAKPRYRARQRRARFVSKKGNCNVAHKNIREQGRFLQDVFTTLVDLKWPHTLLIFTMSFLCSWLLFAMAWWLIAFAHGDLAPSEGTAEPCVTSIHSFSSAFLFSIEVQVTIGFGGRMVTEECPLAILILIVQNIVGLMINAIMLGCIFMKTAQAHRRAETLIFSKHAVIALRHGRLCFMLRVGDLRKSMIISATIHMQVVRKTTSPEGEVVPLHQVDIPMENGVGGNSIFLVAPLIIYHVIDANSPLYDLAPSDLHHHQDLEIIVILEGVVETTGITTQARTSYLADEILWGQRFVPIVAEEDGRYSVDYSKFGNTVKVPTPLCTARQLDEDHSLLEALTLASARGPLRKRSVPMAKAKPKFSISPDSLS
T3 sequence (Q09428 whole entry W143R): as the sequence (Q09428 whole entry) above, with W143R counted along it
T3 sequence (Q14654 whole entry partner): as the sequence (Q14654 whole entry partner) above
T2 sequence (Q09428 whole entry Y124F): as the sequence (Q09428 whole entry) above, with Y124F counted along it
T2 sequence (Q14654 whole entry, further chain): as the sequence (Q14654 whole entry partner) above

`COc1ccc(Cl)cc1C(=O)NCCc1ccc(S(=O)(=O)NC(=O)NC2CCCCC2)cc1` [GBC, glibenclamide]: in experiment [1], the “Rb+ efflux inhibition in cells after 10 μM overnight treatment and washout” value is given as “This reduction is due to GBC inhibition of channels already present at the cell surface”. For `Nc1ncnc2c1ncn2[C@@H]1O[C@H](COP(=O)(O)OP(=O)(O)O)[C@@H](O)[C@H]1O` [MgADP], the EC50 in experiment [2] was 62.2 ± 18.8 µM; in experiment [3] it was 224 ± 47.9 µM. Take `CCCCNC(=O)NS(=O)(=O)c1ccc(C)cc1` [Tolb, tolbutamide]: the “pharmacochaperone rescue in cells at 200 μM (western blot, Rb+ efflux)” value in experiment [4] is “N32K, P133R, W143R, and Y230C mutations showed clear albeit variable response to the three pharmacochaperones”.
